Assay results as given in patent US20230277427A1, “COOLING SENSATION COMPOSITIONS” (GIVAUDAN SA, priority 2020, published 2023).

Columns and labels:
[1] = Solubility of compounds of formula (I) in different solvents (Example A); assay type: physicochemical; conditions: for in the fridge (precipitation): about 4° C. over night; for solubility @ RT: weight % of compound
Description: Into a 20 ml vial 0.4 g of 2-methyl-1-(2-(5-(p-tolyl)-1H-imidazol-2-yl)piperidin-1-yl)butan-1-one (white solid) have been added followed by the addition of 1.6 g of the respective solvent as indicated in Table 1 below. The vial was warmed to about 50° C. with gentle agitation for 1 hour. If 2-methyl-1-(2-(5-(p-tolyl)-1H-imidazol-2-yl)piperidin-1-yl)butan-1-one hasn't dissolved, 2 g of the respective solvent was added (resulting in a composition comprising 10 weight % of a compound of formula (I)), and again gentle agitated for an additional hour at about 50° C. If 2-methyl-1-(2-(5-(p-tolyl)-1H-imidazol-2-yl)piperidin-1-yl)butan-1-one still hasn't dissolved, 4 g of the respective solvent was added (resulting in a composition comprising 5 weight % of a compound of formula (I)), and again gentle agitated for an additional hour at about 50° C.
If 2-methyl-1-(2-(5-(p-tolyl)-1H-imidazol-2-yl)piperidin-1-yl)butan-1-one has dissolved, the vial was removed from the heat and was allowed to cool to room temperature. If no precipitation was observed the vials haven been placed in the fridge (about 4° C.) over night.
If 2-methyl-1-(2-(5-(p-tolyl)-1H-imidazol-2-yl)piperidin-1-yl)butan-1-one still has not dissolved, the procedure above has been repeated, starting with 0.05 g of 2-methyl-1-(2-(5-(p-tolyl)-1H-imidazol-2-yl)piperidin-1-yl)butan-1-one and 0.95 g of the respective solvent as indicated in Table 1 below. If still not dissolved, 1 g of the respective solvent was added (resulting in a composition comprising 2.5 weight % of a compound of formula (I))). If still not dissolved further solvent was added.

[2] = Stability of the solutions over time at different temperature (Example B); assay type: physicochemical
Description: The compound of Formula 1 was 2-methyl-1-(2-(5-(p-tolyl)-1H-imidazol-2-yl)piperidin-1-yl)butan-1-one (hereinafter “the compound”). The testing procedure with a number of different solvents was as follows: • 1. To 0.4 g compound was added 1.6 g solvent. This corresponds to a 20% solution. • 2. This mixture was warmed to 50° C. and agitated for 1 hour. • 3. If the compound dissolved, the solution was allowed to cool to room temperature, and then if it remained clear, it was stored overnight at 4° C. • 4. If crystals had developed, a further 2 g solvent was added (this now corresponding to a 10% solution) and step 2 were performed. • 5. The observations and actions of step 3 were performed. • 6. If the 10% combination of step 4 was not a solution, a further 4 g solvent was added (this now corresponding to a 5% solution), and step 2 were performed. • 7. The observations and actions of step 3 were performed. If crystals had developed, any such solvent was considered unsuitable Any solvent in which the compound was not crystallising at a 20 weight % solution, the testing procedure was repeated with a higher concentration as follows: • 1. To 1 g compound was added 1 g solvent. This corresponds to a 50% solution. • 2. This mixture was warmed to 50° C. and agitated for 1 hour. • 3. If the compound dissolved, the solution was allowed to cool to room temperature, and then if it remained clear, it was stored overnight at 4° C. • 4. If crystals had developed, a further 0.5 g solvent was added (this now corresponding to a 40% solution) and step 2 were performed. • 5. The observations and actions of step 3 were performed. • 6. If the 40% combination of step 4 was not a solution, a further 0.83 g solvent was added (this now corresponding to a 30% solution), and step 2 were performed. • 7. The observations and actions of step 3 were performed.

## CCC(C)C(=O)N1CCCCC1c1ncc(-c2ccc(C)cc2)[nH]1 (stereo not shown) [2-methyl-1-(2-(5-(p-tolyl)-1H-imidazol-2-yl)piperidin-1-yl)butan-1-one]
[1]; solvent Butyl lactate, 10% solution
  in the fridge (precipitation): no crystals observed
[1]; solvent Butyl lactate, dissolved at about 50° C., cooled to room temperature
  solubility @ RT: 10%
[1]; solvent Ethanol abs., 20% solution
  in the fridge (precipitation): no crystals observed
[1]; solvent Ethanol abs., dissolved at about 50° C., cooled to room temperature
  solubility @ RT: 20%
[1]; solvent Ethyl lactate, 10% solution
  in the fridge (precipitation): no crystals observed
[1]; solvent Ethyl lactate, dissolved at about 50° C., cooled to room temperature
  solubility @ RT: 10%
[1]; solvent Isopropyl alcohol, 10% solution
  in the fridge (precipitation): no crystals observed
[1]; solvent Isopropyl alcohol, dissolved at about 50° C., cooled to room temperature
  solubility @ RT: 10%
[1]; solvent Isopropylidene glycerol, 10% solution
  in the fridge (precipitation): no crystals observed
[1]; solvent Isopropylidene glycerol, dissolved at about 50° C., cooled to room temperature
  solubility @ RT: 10%
[1]; solvent L-Lactic acid, purity 86.7 weight %, 20% solution
  in the fridge (precipitation): no crystals observed
[1]; solvent L-Lactic acid, purity 86.7 weight %, dissolved at about 50° C., cooled to room temperature
  solubility @ RT: 20%
[1]; solvent Propylene glycol, 2.5% solution
  in the fridge (precipitation): no crystals observed
[1]; solvent Propylene glycol, dissolved at about 50° C., cooled to room temperature
  solubility @ RT: 2.5%
[1]; solvent Triacetin, 1% solution
  in the fridge (precipitation): no crystals observed
[1]; solvent Triacetin, dissolved at about 50° C., cooled to room temperature
  solubility @ RT: 1%
[1]; solvent Triethyl citrate, 2.5% solution
  in the fridge (precipitation): no crystals observed
[1]; solvent Triethyl citrate, dissolved at about 50° C., cooled to room temperature
  solubility @ RT: 2.5%
[1]; solvent Water dest.
  solubility @ RT: <1% (not soluble)
[1]; solvent dl-Lactic acid, purity 88 weight %, 20% solution
  in the fridge (precipitation): no crystals observed
[1]; solvent dl-Lactic acid, purity 88 weight %, dissolved at about 50° C., cooled to room temperature
  solubility @ RT: 20%
[2]; solvent Butyl lactate
  stability of a solution, weight % of compound, @ 4° C. Overnight: 20% weight %
[2]; solvent Ethanol abs.
  stability of a solution, weight % of compound, @ 4° C. Overnight: 30% weight %
[2]; solvent Ethyl lactate
  stability of a solution, weight % of compound, @ 4° C. Overnight: 10% weight %
[2]; solvent Isopropyl alcohol
  stability of a solution, weight % of compound, @ 4° C. Overnight: 10% weight %
[2]; solvent Isopropylidene glycerol
  stability of a solution, weight % of compound, @ 4° C. Overnight: 10% weight %
[2]; solvent L-Lactic acid, purity 86.7 weight %
  stability of a solution, weight % of compound, @ 4° C. Overnight: 50% weight %
[2]; solvent dl-Lactic acid, purity 88 weight %
  stability of a solution, weight % of compound, @ 4° C. Overnight: 50% weight %
